Experimental data: patent US20140148493A1, “Agricultural and Horticultural Insecticide Composition and Method for Using the Same” (NIHON NOHYAKU CO., LTD., priority 2011, published 2014)

Columns and labels:
Format in all cases: in vivo
Spodoptera litura = test: Field test of insecticidal effect on Spodoptera litura (foliar application, Chinese kale); conditions: flubendiamide 11.3 and/or tolfenpyrad 60 g a.i./ha; for Control effect (%) 4DAT5 / Number of larvae per plant 4DAT5: 4 days after the 5th treatment; for Number of larvae per plant 4DAT5 / Number of larvae per plant 4DAT6: 4-day intervals, Chinese kale field; for Control effect (%) 4DAT6 / Number of larvae per plant 4DAT6: 4 days after the 6th treatment
Experimental: (§1) In an experimental Chinese kale (Brassica oleracea var. acephala) field (sized 4 m×5 m and planted with 800 plants per plot), foliar application was conducted with a water-diluted agrochemical solution (an amount equivalent to 750 L/ha) containing a predetermined dose of a flubendiamide 20% water-dispersible granule and/or a predetermined dose of a tolfenpyrad 15% emulsifiable concentrate at 4-day intervals, 8 times in total. In plots of Plutella xylostella or Spodoptera litura, 20 plants per plot were chosen at random, the number of surviving larvae was measured before the agrochemical treatment, at 4 days after the 5th agrochemical treatment and at 4 days after the 6th agrochemical treatment. With reference to the number of larvae before the agrochemical treatment, the control effect was calculated according to the formula shown below. In addition, the expected value for the control effect of the mixed use was calculated according to Colby's equation shown below. […] As for plots of Spodoptera exigua, the calculation was performed based on the measurements at 4 days after the 7th agrochemical treatment and at 4 days after the 8th agrochemical treatment.
(§2) Control effect=100−{(Ta×Cb)/(Tb×Ca)}×100
(§3) Ta=the number of larvae after the agrochemical treatment in a treatment plot
(§4) Tb=the number of larvae before the agrochemical treatment in a treatment plot
(§5) Ca=the number of larvae after the agrochemical treatment in a non-treatment plot
(§6) Cb=the number of larvae before the agrochemical treatment in a non-treatment plot
(§7) E(expected value)=(X+Y)−(X−Y/100)
(§8) X=the control effect of flubendiamide alone
(§9) Y=the control effect of tolfenpyrad alone
(§10) In each table, 4DAT5, 4DAT6, 4DAT7 and 4DAT8 are as defined below, and the a. i. stands for active ingredient.
(§11) 4DAT5: the measurement at 4 days after the 5th agrochemical treatment
(§12) 4DAT6 the measurement at 4 days after the 6th agrochemical treatment

Plutella xylostella = test: Field test of insecticidal effect on Plutella xylostella (foliar application, Chinese kale); conditions: flubendiamide 11.3 and/or tolfenpyrad 60 g a.i./ha; for Control effect (%) 4DAT5 / Number of larvae per plant 4DAT5: 4 days after the 5th treatment; for Number of larvae per plant 4DAT5 / Number of larvae per plant 4DAT6: 4-day intervals, Chinese kale field; for Control effect (%) 4DAT6 / Number of larvae per plant 4DAT6: 4 days after the 6th treatment
Experimental: as §1, §2, §3, §4, §5, §6, §7, §8, §9, §10, §11, §12

Spodoptera exigua = test: Field test of insecticidal effect on Spodoptera exigua (foliar application, Chinese kale); conditions: flubendiamide 11.3 and/or tolfenpyrad 60 g a.i./ha; for Control effect (%) 4DAT7 / Number of larvae per plant 4DAT7: 4 days after the 7th treatment; for Number of larvae per plant 4DAT7 / Number of larvae per plant 4DAT8: 4-day intervals, Chinese kale field; for Control effect (%) 4DAT8 / Number of larvae per plant 4DAT8: 4 days after the 8th treatment
Experimental: as §1, §2, §3, §4, §5, §6, §7, §8, §9, §10
4DAT7 the measurement at 4 days after the 7th agrochemical treatment
4DAT8 the measurement at 4 days after the 8th agrochemical treatment

Structure (SMILES) | Control effect (%) 4DAT5 (Spodoptera litura) | Number of larvae per plant 4DAT5 (Spodoptera litura) | Control effect (%) 4DAT6 (Spodoptera litura) | Number of larvae per plant 4DAT6 (Spodoptera litura) | Control effect (%) 4DAT5 (Plutella xylostella) | Number of larvae per plant 4DAT5 (Plutella xylostella) | Control effect (%) 4DAT6 (Plutella xylostella) | Number of larvae per plant 4DAT6 (Plutella xylostella) | Control effect (%) 4DAT7 (Spodoptera exigua) | Number of larvae per plant 4DAT7 (Spodoptera exigua) | Control effect (%) 4DAT8 (Spodoptera exigua) | Number of larvae per plant 4DAT8 (Spodoptera exigua)
Cc1cc(C(F)(C(F)(F)F)C(F)(F)F)ccc1NC(=O)c1cccc(I)c1C(=O)NC(C)(C)CS(C)(=O)=O [Flubendiamide, 3-iodo-N′-(2-mesyl-1,1-dimethylethyl)-N-{4-[1,2,2,2-tetrafluoro-1-(trifluoromethyl)ethyl]-o-tolyl}phthalamide] | 3.9% | 0.43 | 37.8% | 0.31 | 53.5% | 0.24 | 70.0% | 0.13 | 37.6% | 0.03 | 62.2% | 0.04
CCc1nn(C)c(C(=O)NCc2ccc(Oc3ccc(C)cc3)cc2)c1Cl [Tolfenpyrad, 4-chloro-3-ethyl-1-methyl-N-[4-(p-tolyloxy)benzyl]pyrazole-5-carboxamide] | 0% | 0.25 | 0% | 0.53 | 29.4% | 0.38 | 58.0% | 0.19 | 0% | 0.06 | 0% | 0.13
